The values below come from US20050250137A1, “Molecular targets of cancer and aging” (priority 2002, published 2005).

Format in all cases: cell-based, human
One test deals with immortal MDAH041 cells. As to the kind of experiment: Western blot protein expression after 5-aza-dC, immortal MDAH041. Conditions: for p16^INK4a protein upregulation: 5-aza-CdR-treated vs untreated immortal MDAH041; for p21 protein levels: 5-aza-dC treatment of immortal MDAH041. On the procedure: Twenty μg of cell extract was boiled for 5 minutes in sample buffer, electrophoresed on a 15% SDS-polyacrylamide gel, and transferred to nitrocellulose. […] The anti-mouse IgG was incubated with the blot for 1 hour at room temperature. The signal was detected by enhanced chemiluminescence. […] Louis, Mo.). Lysates were incubated on ice for 30 minutes followed by centrifugation at 10,000×g. Protein was quantitated using the Bradford Reagent (Sigma, St. Louis, Mo.). Equal amounts of protein were electrophoresed in an appropriate percentage SDS-polyacrylamide gel (SDS-PAGE) and transferred to nitrocellulose membranes. The membranes were incubated with antibodies as indicated. […] The western blots were then incubated with a horseradish peroxidase-conjugated secondary and developed using SuperSignal West Pico (Pierce, Rockford, Ill.). As a control, parallel western blots were probed with α-Tubulin.

Test [1] has as its system normal skin fibroblast cell line 1502 (CRL-1502). As to the kind of experiment: Q-RT-PCR gene expression, normal fibroblasts 1502 treated or untreated with 5-aza-CdR. The following applies: before and after 5azaCdR.
In the next test the test system is nonimmortal cells. As to the kind of experiment: Senescence-like state in nonimmortal cells after 5Aza-dC. Conditions: nonimmortal cells treated with 5Aza-dC.
Where [2] appears, read: Western blot, listed as 5AZA-dC.
Setting [3] is: Western blot, after 5-aza-dC treatment, MDAH041.
Where [4] appears, read: Western blot, immortal MDAH041 treated with 5-aza-dC.

“Also recorded” adds a separate entry of the source.

Consider `Nc1ncn([C@H]2C[C@H](O)[C@@H](CO)O2)c(=O)n1` [5-aza-dC, 5-aza-2′-deoxycytidine], for which, in the test with immortal MDAH041 cells (Western blot, listed as 5-aza-CdR), the “p16^INK4a protein upregulation” value was “over 500 fold”. In the test on immortal MDAH041 cells (setting [2]), the “p16^INK4a protein upregulation” value was “approximately 500 fold” and the p21 protein levels result is listed as “not regulated”. Further, in the test with immortal MDAH041 cells (Western blot), the p21 protein levels result is listed as “protein expression of both was induced”. In the test with immortal MDAH041 cells (setting [3]), the IGFBP4 protein result was “slight induction; also recorded: little to no induction” and the IGFBPrP1 protein result was “little to no induction”. In addition, in the test on immortal MDAH041 cells (setting [4]), the “p16^INK4a protein expression” value is given as “protein expression of both was induced” and the “protein levels of STAT1α” value is “increased in response to treatment”. Besides, the IGFBP3 protein levels result with immortal MDAH041 cells (Western blot, response to 5-aza-dC, MDAH041) is “increased in response to 5-aza-dC”. The STAT1 protein upregulation with immortal MDAH041 cells (immortal cells, 5AZA-dC treatment) is 4.7 fold. In test [1] (↑ increase), the “(2-5′) oligoadenylate synthetase E gene OAS1 expression, 1502 vs. 1502 5aza” value is 2↑ fold; the “CIG49 expression, 1502 vs. 1502 5aza” value is 1.1↑ fold; the “Interferon-induced 17-kDa/15-kDA expression, 1502 vs. 1502 5aza” value is on record as 1.8↑ fold; the “Interferon-inducible protein p78 expression, 1502 vs. 1502 5aza” value is listed as 1.8↑ fold. In test [1] (↑ increase), the “Interferon-regulatory factor 7B expression, 1502 vs. 1502 5aza” value is listed as 1.5↑ fold and the “STAT 1, 91 kD expression, 1502 vs. 1502 5aza” value is 1.8↑ fold. For the same molecule, in test [1] (↓ decrease), the “Interferon-inducible 56 kDa protein expression, 1502 vs. 1502 5aza” value is given as 1.2↓ fold; the “Interferon-inducible membrane protein 9-27 (IFITM1) expression, 1502 vs. 1502 5aza” value is reported as 1.8↓ fold; the “MGSF expression, 1502 vs. 1502 5aza” value is listed as 3.2↓ fold; the “MIF expression, 1502 vs. 1502 5aza” value was 1.7↓ fold. Besides, in test [1] (↓ decrease), the “NDN expression, 1502 vs. 1502 5aza” value is 1.4↓ fold. In addition, the “induction of senescence-like state” value in the test with nonimmortal cells is “does not result in an induction of an senescence-like state”.
